Experimental data published in US20240409607A1, “STABILIZED MHC MOLECULES” (Immatics Biotechnologies GmbH, priority 2021, published 2024).

Legend:
[1] = tested on: HLA-A*02:01_ds 22-71; details: 0.1 mg/ml protein, 20 mM Tris pH 8.0, 150 mM NaCl; for protein stability (melting point) in thermal shift assay: sodium butyrate 50 mM, GM dipeptide 10 mM, water as control
Procedure: (§1) After refolding the protein was concentrated by ultrafiltration and purified by size exclusion chromatography. Fatty acids were dissolved in or diluted with water and neutralized with NaOH to give stock solution of 0.5 M pH 7.
(§2) In order to find optimal storage and handling conditions for peptide free recombinant HLA-A*02:01 preparations, different compounds were screened in a thermal shift assay (TSA). Measurements were performed in the Applied Biosystems 7500 real time PCR instrument at a protein concentration of 0.1 mg/ml in a buffer of 20 mM Tris pH 8.0, 150 mM NaCl. The additives indicated in table 3 were added or alternatively water was added as a control. The raw data was exported and the analysis of the melting temperature was performed in Microsoft Excel. Protein stability was monitored over a temperature range from 30° C. to 70° C. […] The temperature at which the maximal increase of fluorescence compared to the previous measurement was observed, is defined as melting point in the respective composition.

[2] = tested on: HLA-A*02:01 ds_84-139; test: TSA with fatty acid and/or GM loading dipeptide; assay type: binding, human; details: fatty acid 50 mM final or GM 10 mM final
Procedure: as §2
(§3) Reference is made to FIGS. 5 to 7.

[3] = tested on: HLA-A*02:01_ds_22-71; test: TSA with fatty acid and/or GM loading dipeptide; assay type: binding, human; details: fatty acid 50 mM final or GM 10 mM final
Procedure: as §2, §3

[4] = tested on: HLA-A*0201 ds 22-71; test: TSA-screen with 40 different buffer conditions (different pH); assay type: binding, human; details: valeric acid 50 mM
Procedure: In a parallel TSA-screen with 40 different buffer conditions (MES pH between 5.8 to 7.2; BisTris pH between 5.8 to 7.2; MOPS pH between 6.5 to 7.9; HEPES pH 6.8 to 8.2; and Tris pH between 7.6 to 9.0), a clear link between pH conditions and stability of recombinant HLA was detected. In this experiment, a solution of 0.1 mg/ml HLA-A*0201 ds 22-71 in 20 mM HEPES pH 7.0 was supplemented with 0.1 volume of 1 M stock solution of the respective buffer. […] This pH range was also found to be optimal for peptide loaded HLA molecules. In order to test whether HLA is stabilized in different pH conditions by the fatty acids, a TSA-screen with the same 40 different buffer conditions was performed as described above. […] Accordingly, the stabilizing effect of the fatty acid on the HLA molecule was observed under different pH conditions.

[5] = tested on: HLA-A*02:01_ds 22-71; test: TSA with fatty acids in 20 mM HEPES pH 7.0; assay type: binding, human; details: 50 mM fatty acid, 20 mM HEPES pH 7.0, protein 0.1 mg/ml
Procedure: as §1
as §2, with “Measurements were performed in the Applied Biosystems 7500 real time PCR instrument at a protein concentration of 0.1 mg/ml in a buffer of 20 mM Tris pH 8.0, 150 mM NaCl.” left out

Structure (SMILES) | stabilizing effect compared to the dipeptide glycine-methionine ([1]; sodium butyrate 50 mM vs GM 10 mM) | protein stability (melting point) in thermal shift assay [1] | stabilization of the HLA protein, single additive [2] | stabilization of the HLA protein, single additive [3] | stabilizing effect compared to tests without the fatty acid ([4]; 40 buffer conditions, MES, BisTris, MOPS, HEPES, Tris, pH 5.8 to 9.0, 100 mM buffer) | stabilizing effect in the pH range of 6 to 7.2 ([4]; pH 6 to 7.2) | stabilizing effect on the HLA molecule (melting point), branched or unsaturated versus linear saturated fatty acids [5]
CCCC(=O)[O-].[Na+] [sodium butyrate, Sodium butyrate] | increased stabilizing effect | marked increase in protein stability | Stabilization of the HLA proteins was observed | Stabilization of the HLA proteins was observed |  |  | 
CSCC[C@H](N)C(=O)O.NCC(=O)O [glycine-methionine, reference compound] |  | marked increase in protein stability | Stabilization of the HLA proteins was observed | Stabilization of the HLA proteins was observed |  |  | 
CCCCCC(=O)O [hexanoic acid] |  |  | Stabilization of the HLA proteins was observed | Stabilization of the HLA proteins was observed |  |  | 
CCCCC(=O)O [valeric acid, Pentanoic acid] |  |  | Stabilization of the HLA proteins was observed | Stabilization of the HLA proteins was observed | increased in all pH conditions tested | particularly increased | 
CC(C)CCC(=O)O [4-methyl-valeric acid, 4-methyl-pentanoic acid] |  |  |  |  |  |  | showed a stabilizing effect on the HLA molecule
